Read-outs that look alike come from different tables or passages of the source.
Experiments:
seizures = details: intranasal, human patients; cited from earlier work
[1] = Protocol: After combining of pre-weighed amounts of components they were gently triturated at room temperature (20-22° C.) using a stainless steel spatula until liquid phase is formed.
PTZ induced seizures = experiment: Timed intravenous PTZ infusion test (ivPTZ); format: in vivo, mice
Excerpt: For investigation of anti-seizure activity of invented formulations, a timed intravenous PTZ infusion test was employed.
The technique of timed i.v. PTZ (pentylenetetrazole) infusion test (ivPTZ) is a simple, reproducible and fast method for assessment of onset, peak, duration and potency of various anticonvulsants and proconvulsants in animals. This test provides an extremely sensitive parametric method for assessing seizure threshold in individual animals and a quantifiable endpoint can be obtained with a minimal number of animals. Different seizure types can be chosen as endpoint in this test. Usually, the first seizure occurring during the PTZ infusion is a myoclonic twitch, followed by clonic and, later, tonic seizures.
This method offers many advantages over the more widely used classical subcutaneous PTZ (scPTZ) test. Since with ivPTZ, test effects based on different endpoints are measured in individual animals, the number of animals required for a proper evaluation is much lower than would be needed for standard scPTZ test. […]
During the infusion, mice are observed for the onset of different types of seizures. The time latencies from the start of infusion to the appearance of the first clonus (characterized by rapid involuntary rhythmic contraction and relaxation of limbs), lasting longer than 5 seconds, are recorded. […]

Compound | onset of action (seizures) | increase of solubility ([1]; MCT oil + 5% Menthol by weight vs pure MCT oil) [%] | increase of solubility ([1]; MCT with 8% Menthol vs pure MCT oil) [%] | PTZ dose threshold (PTZ induced seizures; intraperitoneal 2.5 mg/kg, 5 minutes time point, infusion 0.3 ml/min, PTZ 10 mg/ml) [mg/kg] | time of maximal protection (PTZ induced seizures; parenterally administered)
Cc1ncc2n1-c1ccc(Cl)cc1C(c1ccccc1F)=NC2 [Midazolam] | approximately 10 minutes | – | – | – | –
O=C1Nc2ccc(Cl)cc2C(c2ccccc2Cl)=NC1O (centres unmarked) [Lorazepam] | – | 28 | ~60 | 100 to 120 | approximately 5 minutes
